Data: patent US11944593B2, “Myrcene-containing complex mixtures targeting TRPV1” (GBS GLOBAL BIOPHARMA, INC., priority 2017, dated 2024)
Each block holds one molecule with its values, some of them ahead of it.

Experiments:
Assay type in all cases: cell-based
TRPV1 [1] = molecular target: T1, TRPV1 (Rattus norvegicus, UniProt O35433); assay: Whole-cell patch clamp in single HEK293 cells overexpressing TRPV1; conditions: for inward current: average of 6 independent experiments; for outward current relative to inward current: then 1 μM capsaicin
T1 construct: FLAG; expressed in transfected cells; host or cells: TRex HEK293 (HEK293 stably carrying pcDNA6TR), induced with tetracycline
T1 sequence (O35433 whole entry): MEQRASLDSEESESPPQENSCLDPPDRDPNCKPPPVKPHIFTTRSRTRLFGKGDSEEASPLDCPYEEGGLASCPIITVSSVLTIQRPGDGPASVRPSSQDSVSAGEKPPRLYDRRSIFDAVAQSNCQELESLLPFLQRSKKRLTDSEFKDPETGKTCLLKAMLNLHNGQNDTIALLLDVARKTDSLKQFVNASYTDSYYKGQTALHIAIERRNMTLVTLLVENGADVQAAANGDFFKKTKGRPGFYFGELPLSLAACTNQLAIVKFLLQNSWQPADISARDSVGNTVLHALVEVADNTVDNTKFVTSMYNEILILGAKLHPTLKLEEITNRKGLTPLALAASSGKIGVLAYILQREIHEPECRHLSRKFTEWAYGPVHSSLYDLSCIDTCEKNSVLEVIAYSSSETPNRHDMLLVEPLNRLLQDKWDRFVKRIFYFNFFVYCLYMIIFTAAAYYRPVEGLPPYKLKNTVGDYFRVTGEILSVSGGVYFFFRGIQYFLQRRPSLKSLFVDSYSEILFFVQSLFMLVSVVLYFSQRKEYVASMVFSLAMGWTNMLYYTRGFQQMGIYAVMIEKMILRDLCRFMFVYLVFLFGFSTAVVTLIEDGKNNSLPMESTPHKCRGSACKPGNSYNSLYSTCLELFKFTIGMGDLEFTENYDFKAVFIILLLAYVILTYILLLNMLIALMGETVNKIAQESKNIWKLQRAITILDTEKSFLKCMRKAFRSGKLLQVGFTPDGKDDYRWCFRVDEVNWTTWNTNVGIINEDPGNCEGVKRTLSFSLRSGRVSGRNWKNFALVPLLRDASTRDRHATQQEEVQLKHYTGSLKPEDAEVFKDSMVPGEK
Experimental: HEK293 cells were kept in sodium-based extracellular Ringer's solution containing 140 mM NaCl, 1 mM CaCl2, 2 mM MgCl2, 2.8 mM KCl, 11 mM glucose, and 10 mM HEPES-NaOH, pH 7.2 and osmolarity 300 mOsmol. The cells' cytosol was perfused with intracellular patch pipette solution containing 140 mM Cs-glutamate, 8 mM NaCl, 1 mM MgCl2, 3 mM MgATP, and 10 mM HEPES-CsOH. The standard internal Ca^2+ concentration was buffered to 180 nM with 4 mM Ca and 10 mM BAPTA. The level of free unbuffered Ca was adjusted using the calculator provided with WebMaxC (http://www.stanford.edu/˜cpatton/webmaxcS.htm). The pH of the final solution was adjusted to pH 7.2 and osmolarity measured at 300 mOsmol.
1 μM capsaicin was used as a positive control for TRPV1 activation. Rapid extracellular solution application and exchange was performed with the SmartSquirt delivery system (Auto-Mate Scientific, San Francisco). The system includes a ValveLink TTL interface between the electronic valves and the EPC-9 amplifier (HEKA, Lambrecht, Germany). This configuration allows for programmable solution changes via the PatchMaster software (HEKA, Lambrecht, Germany).
Patch-clamp experiments were performed in the whole-cell configuration at 21-25° C. Patch pipettes had resistances of 2-3 MΩ. Data was acquired with PatchMaster software controlling an EPC-9 amplifier. Voltage ramps of 50 ms spanning the voltage range from −100 to 100 mV were delivered from a holding potential of 0 mV at a rate of 0.5 Hz over a period of […]. Voltages were corrected for a liquid junction potential of 10 mV. Currents were filtered at 2.9 kHz and digitized at 100 μs is intervals. Capacitive currents were determined and corrected before each voltage ramp. The development of currents for a given potential was extracted from individual ramp current records by measuring the current amplitudes at voltages of −80 mV and +80 mV. Data were analyzed with FitMaster (HEKA, Lambrecht, Germany), and IgorPro (WaveMetrics, Lake Oswego, Oreg., USA). Where applicable, statistical errors of averaged data are given as mean±s.e.m.

TRPV1 [2] = molecular target: T1, TRPV1; assay: TRPV1-mediated calcium flux (Fluo-4) in HEK cells inducibly expressing TRPV1; conditions: for suppression of later calcium response by pre-incubation (desensitization): 24 hours pre-incubation with the same compound; for AUC of calcium response curve, first application: AUC (between 20-300 nM), compound first introduced to TRPV1-expressing cells; for concentration inducing calcium influx to a similar degree (by AUC): AUC between 20 and 300 nM of calcium response curves; for AUC of calcium response after 24 hours incubation with the same compound: cells incubated with compound for 24 hours, then re-stimulated; for calcium flux (Fluo-4 RFU) in TRPV1-expressing HEK cells: stimulus applied to cell culture medium, mixtures at Table 1 concentrations
Experimental: The HEK293 cell line was stably transfected with the pcDNA6TR (Invitrogen, CA) plasmid (encoding the tetracycline-sensitive TREx repressor protein), and was maintained in DMEM+10% fetal bovine serum (inactivated at 55° C. for 1 h)+2 mM glutamine in humidified 5% CO2 atmosphere at 37° C. Selection pressure on the TRex 293 cells was maintained by continuous culture in 10 μg/ml Blasticidin (Sigma, St Louis, Mo.).
For production of TRex HEK293 cells with inducible expression of TRPV1, parental cells were electroporated with the rat TRPV1 cDNA in the pcDNA4TO vector and clonal cell lines were selected by limiting dilution in the presence of 400 μg/ml zeocin (Invitrogen, CA). TRPV1 expression was induced using 1 μg/ml tetracycline for 16 h at 37° C.
(§1) Calcium responses mediated by TRPV1 were tested by calcium assay in the cell culture system. Cells were washed and incubated with 0.2 μM fluo-4 acetoxymethyl ester (“Fluo-4”) for 30 minutes at 37° C. in a standard modified Ringer's solution of the following composition (in mM): NaCl 145, KCl 2.8, CsCl 10, CaCl2 10, MgCl2 2, glucose 10, Hepes.NaOH 10, pH 7.4, 330 mOsm. Cells were transferred to 96-well plates at 50,000 cells/well and stimulated as indicated. Calcium signals were acquired using a Flexstation 3 (Molecular Devices, Sunnydale, USA). Data was analyzed using SoftMax® Pro 5 (Molecular Devices). Where indicated, nominally calcium-free external conditions were achieved by the preparation of 0 mM CaCl2 Ringer solution containing 1 mM EGTA. Where indicated, capsaicin (10 μM) and ionomycin (500 nM) were used as positive controls to induce calcium responses. Capsazepine (10 μM) was used where indicated to specifically antagonize TRPV1-mediated calcium responses. Where indicated, baseline traces (no stimulation, NS) were subtracted. Where indicated, vehicle alone traces were subtracted. Where indicated, vehicle comprising various diluents matched to corresponding mixtures was used as a negative control.

HEK wild type cells = assay: Calcium flux (Fluo-4) in wild-type HEK cells without TRPV1 construct; conditions: same stimulus conditions as TRPV1-expressing cells
Experimental: as §1

[3] = pre-incubation with 500 nM ionomycin

- current induced (TRPV1 [1]; 1 μM capsaicin (not shown)): 4-10 nA
- inward current (TRPV1 [1]; 1 μM capsaicin applied after myrcene): approximately 9 nA
- AUC of calcium response curve, first application (TRPV1 [2]): 124
- concentration inducing calcium influx to a similar degree (by AUC) (TRPV1 [2]): about 30 nM
- AUC of calcium response after 24 hours incubation with the same compound (TRPV1 [2]): 38
- calcium flux (Fluo-4 RFU) in TRPV1-expressing HEK cells (TRPV1 [2]): capsaicin-specific calcium fluxes
Structure (SMILES): COc1cc(CNC(=O)CCCC/C=C/C(C)C)ccc1O [capsaicin, reference compound]
- outward current relative to inward current (TRPV1 [1]; 5 μM myrcene): at a lower amplitude than the inward current
- suppression of later calcium response by pre-incubation (desensitization) (TRPV1 [2]): 69%

- calcium flux (Fluo-4 RFU) in TRPV1-expressing HEK cells (TRPV1 [2]): significant calcium flux was detected
- calcium flux (Fluo-4 RFU) in TRPV1-expressing HEK cells (TRPV1 [2]; listed as Nerolidol): more modest agonist activity
Structure (SMILES): C=CC(C)(O)CCC=C(C)CCC=C(C)C (centres unmarked) [nerolidol]

Structure (SMILES): C=C(C)[C@@H]1CCC(C)=C[C@H]1c1c(O)cc(CCCCC)c(C(=O)O)c1O [cannabidiolic acid]
- calcium flux in wild-type HEK cells without TRPV1 (HEK wild type cells): only minimal or absent
- calcium flux (Fluo-4 RFU) in TRPV1-expressing HEK cells (TRPV1 [2]): calcium flux was detected

Structure (SMILES): C[C@H](CCC(=O)O)C[C@H](C)C[C@H](C)C(=O)/C=C(\O)[C@H](C)C[C@H](C)C/C=C/[C@@H](C)[C@@H](O)[C@@H](C)[C@@H](O)C[C@@H]1CC[C@@](C)([C@H]2CC[C@@](C)([C@@H](C)O)O2)O1 [ionomycin, reference compound]
- AUC of calcium response curve, first application (TRPV1 [2]): 128
- reduction of later calcium influx in response to capsaicin (TRPV1 [2]; [3]): 38%
- reduction of later calcium influx in response to myrcene (TRPV1 [2]; [3]): 27%

Structure (SMILES): C=C(C)[C@@H]1CCC(C)=C[C@H]1c1c(O)cc(CCCCC)cc1O [cannabidiol]
- calcium flux in wild-type HEK cells without TRPV1 (HEK wild type cells): only minimal or absent
- calcium flux (Fluo-4 RFU) in TRPV1-expressing HEK cells (TRPV1 [2]): calcium flux was detected

Structure (SMILES): CCCCCc1cc(O)c(C/C=C(\C)CCC=C(C)C)c(O)c1C(=O)O [cannabigerolic acid]
- calcium flux in wild-type HEK cells without TRPV1 (HEK wild type cells): only minimal or absent
- calcium flux (Fluo-4 RFU) in TRPV1-expressing HEK cells (TRPV1 [2]): calcium flux was detected

Structure (SMILES): CCCCCc1cc(O)c2c(c1)OC(C)(CCC=C(C)C)C=C2 (centres unmarked) [cannabichromene]
- calcium flux in wild-type HEK cells without TRPV1 (HEK wild type cells): only minimal or absent
- calcium flux (Fluo-4 RFU) in TRPV1-expressing HEK cells (TRPV1 [2]): calcium flux was detected

- inward current (TRPV1 [1]; 5 μM myrcene, 1 mM Ca): approximately 0.5 nA
- current induced (TRPV1 [1]; 5 μM, 10 μM and 150 μM myrcene): 0.5-2.2 nA
- current response in individual cells to increasing myrcene (TRPV1 [1]; 5 μM, 10 μM, 150 μM myrcene): dose-dependent response
- TRPV1 channel permeation state activated (TRPV1 [1]; IV relationship, State 1 vs State 2 (dilated)): primarily in State 1
- AUC of calcium response curve, first application (TRPV1 [2]): 66
- concentration inducing calcium influx to a similar degree (by AUC) (TRPV1 [2]): about 200 nM
- AUC of calcium response after 24 hours incubation with the same compound (TRPV1 [2]): 32
- calcium-mediated fluorescence under calcium-free medium conditions, high concentration (TRPV1 [2]; myrcene 3.5 μg/ml, calcium-free medium): induced such increase
- calcium responses to different concentrations of myrcene (TRPV1 [2]; myrcene 3.5 μm/ml, 1.75 μg/ml, 0.875 μm/ml and 0.43 μm/ml): dose-dependent
- calcium flux (Fluo-4 RFU) in TRPV1-expressing HEK cells (TRPV1 [2]): significant calcium flux was detected
Structure (SMILES): C=CC(=C)CCC=C(C)C [myrcene, 7-methyl-3-methylideneocta-1,6-diene]
- calcium flux in wild-type HEK cells without TRPV1 (HEK wild type cells): much smaller
- outward current relative to inward current (TRPV1 [1]; 5 μM myrcene): at a lower amplitude than the inward current
- suppression of later calcium response by pre-incubation (desensitization) (TRPV1 [2]): 52%
- calcium-mediated fluorescence under calcium-free medium conditions, low concentrations (TRPV1 [2]; myrcene 0.43, 0.875 and 1.75 μg/ml, calcium-free medium): did not cause increase of calcium-mediated fluorescence

Structure (SMILES): C=C(C)[C@@H]1CCC(C)=C[C@H]1c1c(O)cc(CCC)cc1O [cannabidivarin]
- calcium flux in wild-type HEK cells without TRPV1 (HEK wild type cells): only minimal or absent
- calcium flux (Fluo-4 RFU) in TRPV1-expressing HEK cells (TRPV1 [2]): calcium flux was detected

- effect on calcium flux induced by myrcene (TRPV1 [2]; 10 μM capsazepine added to cells activated with 3.5 μm/ml myrcene): diminished
Structure (SMILES): Oc1cc2c(cc1O)CN(C(=S)NCCc1ccc(Cl)cc1)CCC2 [capsazepine, reference compound]
